The record followed here is US9499538B2, “Estrogen receptor modulators and uses thereof” (Seragon Pharmaceuticals, Inc., priority 2012, dated 2016).

In one test the target is T1, ER-α in MCF-7 cells (Homo sapiens, UniProt P03372).
T1 construct: endogenous in cells; host or cells: MCF-7
T1 sequence (P03372 1-595): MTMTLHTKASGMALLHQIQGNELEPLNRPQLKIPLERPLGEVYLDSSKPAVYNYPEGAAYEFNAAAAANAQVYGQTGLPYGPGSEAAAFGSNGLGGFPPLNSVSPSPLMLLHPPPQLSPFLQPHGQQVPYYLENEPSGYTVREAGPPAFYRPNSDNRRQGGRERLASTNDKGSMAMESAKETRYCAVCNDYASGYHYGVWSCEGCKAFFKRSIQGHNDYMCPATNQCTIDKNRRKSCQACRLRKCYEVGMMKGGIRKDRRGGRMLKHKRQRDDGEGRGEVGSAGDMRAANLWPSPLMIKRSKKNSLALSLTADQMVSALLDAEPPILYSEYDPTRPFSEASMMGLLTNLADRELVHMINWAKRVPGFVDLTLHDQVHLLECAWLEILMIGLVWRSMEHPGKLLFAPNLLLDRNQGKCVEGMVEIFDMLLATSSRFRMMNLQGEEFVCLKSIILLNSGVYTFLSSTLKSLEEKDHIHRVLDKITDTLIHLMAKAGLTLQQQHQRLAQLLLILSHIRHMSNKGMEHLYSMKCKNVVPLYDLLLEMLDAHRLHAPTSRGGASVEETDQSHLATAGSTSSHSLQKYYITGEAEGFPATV
The test can be described thus: Breast Cancer Cell ER-α In Cell Western Assay (SP1). The test is classed as cell-based. Conditions: 4 or 24 hr post compound addition; for Emax: MCF7, SP1 antibody, read-out: ER-α In Cell Western Assay (SP1) Max Response; for DC50: SP1 antibody, read-out: ER-α In Cell Western Assay (SP1) IC50. In short, it runs like this: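 MCF-7 cells in charcoal-stripped FBS medium, treated with 11-point semilog dilutions (0.3–0.000003 μM final) for 4 or 24 h. Fixed cells immunostained with SP1 antibody (800 nm) and DRAQ5 DNA (700 nm); ER/DNA ratio expressed as % of untreated cells.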

In another test the test system is MCF-7 cells. The test can be described thus: Breast Cancer Cell Viability Assays (MCF-7, CellTiter-Glo). Format: cell-based. The note with it: 5 days' compound exposure; for IC50: Homo sapiens, MCF7, 120 h. In short, it runs like this: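 MCF-7 cells (320/well, RPMI with 10% FBS) exposed for 5 days to an eleven-point semilog series, 0.3–0.000003 μM final. Viability read by CellTiter-Glo luminescence, expressed as background-corrected percent of untreated cells.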
A general note: ATP-based viability assays read luminescence as a measure of living cells.

In the case of `N#Cc1ccc(/C(=C(\c2ccc(/C=C/C(=O)O)cc2)c2ccc3nccn3c2)C2CCC2)c(Cl)c1` [Example 226, (E)-3-(4-((E)-2-(2-Chloro-4-cyanophenyl)-2-cyclobutyl-1-(imidazo[1,2-a]pyridin-6-yl)vinyl)phenyl)acrylic acid], on ER-α in MCF-7 cells, the Emax was not below 40% and the DC50 was not above 100 nM. Besides, in the test on MCF-7 cells, the “MCF7 Viability Assay Max Response” value is listed as “++ (++ = a single % value ≧ 40%)” and the concentration for half-maximal inhibition (IC50) was not above 100 nM.
In the case of `N#Cc1cc(Cl)ccc1/C(=C(\c1ccc(/C=C/C(=O)O)cc1)c1ccc2nccn2c1)C1CCC1` [Example 227, (E)-3-(4-((E)-2-(4-Chloro-2-cyanophenyl)-2-cyclobutyl-1-(imidazo[1,2-a]pyridin-6-yl)vinyl)phenyl)acrylic acid], at ER-α in MCF-7 cells, the Emax is not below 40% and the DC50 is not above 100 nM. In addition, in the test with MCF-7 cells, the “MCF7 Viability Assay Max Response” value is “++ (++ = a single % value ≧ 40%)” and the IC50 is not above 100 nM.
In the case of `COc1ccc(/C(=C(\c2ccc(/C=C/C(=O)O)cc2)c2ccc3nccn3c2)C2CCC2)c(Cl)c1` [Example 228, (E)-3-(4-((E)-2-(2-Chloro-4-methoxyphenyl)-2-cyclobutyl-1-(imidazo[1,2-a]pyridin-6-yl)vinyl)phenyl)acrylic acid], on ER-α in MCF-7 cells, the Emax is not below 40% and the DC50 was not above 100 nM. In the test on MCF-7 cells, the “MCF7 Viability Assay Max Response” value is “++ (++ = a single % value ≧ 40%)” and the IC50 was not above 100 nM.
Turning to `COc1ccc(/C(=C(\c2ccc(/C=C/C(=O)O)cc2)c2ccc3nccn3c2)C2CCC2)c(C)c1` [Example 229, (E)-3-(4-((E)-2-Cyclobutyl-1-(imidazo[1,2-a]pyridin-6-yl)-2-(4-methoxy-2-methylphenyl)vinyl)phenyl)acrylic acid], on ER-α in MCF-7 cells, the Emax was not below 40% and the DC50 was not above 100 nM. Also, in the test on MCF-7 cells, the “MCF7 Viability Assay Max Response” value is “++ (++ = a single % value ≧ 40%)” and the concentration for half-maximal inhibition (IC50) was not above 100 nM.
In the case of `CCOc1ccc(/C(=C(\c2ccc(/C=C/C(=O)O)cc2)c2ccc3[nH]nc(F)c3c2)C2CCC2)c(Cl)c1` [Example 230, (E)-3-(4-((E)-2-(2-Chloro-4-ethoxyphenyl)-2-cyclobutyl-1-(3-fluoro-1H-indazol-5-yl)vinyl)phenyl)acrylic acid], at ER-α in MCF-7 cells, the Emax is not below 40% and the DC50 is not above 100 nM. Also, in the test with MCF-7 cells, the “MCF7 Viability Assay Max Response” value is reported as “++ (++ = a single % value ≧ 40%)” and the concentration for half-maximal inhibition (IC50) is not above 100 nM.
Take `O=C(O)/C=C/c1ccc(/C(=C(\c2ccc(C(F)(F)F)cc2Cl)C2CCC2)c2ccc3nccn3c2)cc1` [Example 231, (E)-3-(4-((E)-2-(2-Chloro-4-(trifluoromethyl)phenyl)-2-cyclobutyl-1-(imidazo[1,2-a]pyridin-6-yl)vinyl)phenyl)acrylic acid]: on ER-α in MCF-7 cells, the Emax is not below 40% and the DC50 was not above 100 nM. In addition, in the test on MCF-7 cells, the “MCF7 Viability Assay Max Response” value is “++ (++ = a single % value ≧ 40%)” and the IC50 was not above 100 nM.
Regarding `COc1ccc(/C(=C(\c2ccc(/C=C/C(=O)O)cc2)c2ccc3scnc3c2)C2CCC2)c(Cl)c1` [Example 232, (E)-3-(4-((E)-1-(Benzo[d]thiazol-5-yl)-2-(2-chloro-4-methoxyphenyl)-2-cyclobutylvinyl)phenyl)acrylic acid], at ER-α in MCF-7 cells, the Emax is not below 40% and the DC50 was not above 100 nM. Also, in the test on MCF-7 cells, the “MCF7 Viability Assay Max Response” value is recorded as “++ (++ = a single % value ≧ 40%)” and the IC50 is not above 100 nM.
Turning to `O=C(O)/C=C/c1ccc(/C(=C(\c2ccc(CO)cc2Cl)C2CCC2)c2ccc3scnc3c2)cc1` [Example 233, (E)-3-(4-((E)-1-(Benzo[d]thiazol-5-yl)-2-(2-chloro-4-(hydroxymethyl)phenyl)-2-cyclobutylvinyl)phenyl)acrylic acid], at ER-α in MCF-7 cells, the Emax was not below 40% and the DC50 is not above 100 nM. Moreover, in the test with MCF-7 cells, the “MCF7 Viability Assay Max Response” value is listed as “++ (++ = a single % value ≧ 40%)” and the IC50 was not above 100 nM.
Regarding `O=C(O)/C=C/c1ccc(/C(=C(\c2ccccc2Cl)C2CCC2)c2ccc3scnc3c2)cc1` [Example 234, (E)-3-(4-((E)-1-(Benzo[d]thiazol-5-yl)-2-(2-chlorophenyl)-2-cyclobutylvinyl)phenyl)acrylic acid], at ER-α in MCF-7 cells, the Emax is not below 40% and the DC50 was not above 100 nM. For the same molecule, in the test on MCF-7 cells, the “MCF7 Viability Assay Max Response” value is “++ (++ = a single % value ≧ 40%)” and the half-maximal inhibitory concentration (IC50) was not above 100 nM.
As to `O=C(O)/C=C/c1ccc(/C(=C(\c2cccc(F)c2Cl)C2CCC2)c2ccc3scnc3c2)cc1` [Example 235, (E)-3-(4-((E)-1-(Benzo[d]thiazol-5-yl)-2-(2-chloro-3-fluorophenyl)-2-cyclobutylvinyl)phenyl)acrylic acid], on ER-α in MCF-7 cells, the Emax is not below 40% and the DC50 is not above 100 nM. In the test with MCF-7 cells, the “MCF7 Viability Assay Max Response” value is “++ (++ = a single % value ≧ 40%)” and the half-maximal inhibitory concentration (IC50) was not above 100 nM.
On to `O=C(O)/C=C/c1ccc(/C(=C(\c2cc(F)ccc2Cl)C2CCC2)c2ccc3scnc3c2)cc1` [Example 236, (E)-3-(4-((E)-1-(Benzo[d]thiazol-5-yl)-2-(2-chloro-5-fluorophenyl)-2-cyclobutylvinyl)phenyl)acrylic acid], for which, on ER-α in MCF-7 cells, the Emax was not below 40% and the DC50 is not above 100 nM. Also, in the test on MCF-7 cells, the “MCF7 Viability Assay Max Response” value was “++ (++ = a single % value ≧ 40%)” and the concentration for half-maximal inhibition (IC50) is not above 100 nM.
Consider `Cc1cc(CO)ccc1/C(=C(\c1ccc(/C=C/C(=O)O)cc1)c1ccc2scnc2c1)C1CCC1` [Example 237, (E)-3-(4-((E)-1-(Benzo[d]thiazol-5-yl)-2-cyclobutyl-2-(4-(hydroxymethyl)-2-methylphenyl)vinyl)phenyl)acrylic acid], for which, at ER-α in MCF-7 cells, the Emax was not below 40% and the DC50 is not above 100 nM. Further, in the test with MCF-7 cells, the “MCF7 Viability Assay Max Response” value is reported as “++ (++ = a single % value ≧ 40%)” and the 50% inhibitory concentration (IC50) is not above 100 nM.
As for `Cc1ccccc1/C(=C(\c1ccc(/C=C/C(=O)O)cc1)c1ccc2scnc2c1)C1CCC1` [Example 238, (E)-3-(4-((E)-1-(Benzo[d]thiazol-5-yl)-2-cyclobutyl-2-(o-tolyl)vinyl)phenyl)acrylic acid], on ER-α in MCF-7 cells, the Emax is not below 40% and the DC50 is not above 100 nM. Besides, in the test on MCF-7 cells, the “MCF7 Viability Assay Max Response” value was “++ (++ = a single % value ≧ 40%)” and the IC50 is not above 100 nM.
In the case of `Cc1cc(F)ccc1/C(=C(\c1ccc(/C=C/C(=O)O)cc1)c1ccc2scnc2c1)C1CCC1` [Example 239, (E)-3-(4-((E)-1-(Benzo[d]thiazol-5-yl)-2-cyclobutyl-2-(4-fluoro-2-methylphenyl)vinyl)phenyl)acrylic acid], at ER-α in MCF-7 cells, the Emax is not below 40% and the DC50 is not above 100 nM. Also, in the test on MCF-7 cells, the “MCF7 Viability Assay Max Response” value was “++ (++ = a single % value ≧ 40%)” and the IC50 was not above 100 nM.
As for `COc1ccc(/C(=C(\c2ccc(/C=C/C(=O)O)cc2)c2ccc3scnc3c2)C2CCC2)c(C)c1` [Example 240, (E)-3-(4-((E)-1-(Benzo[d]thiazol-5-yl)-2-cyclobutyl-2-(4-methoxy-2-methylphenyl)vinyl)phenyl)acrylic acid], at ER-α in MCF-7 cells, the Emax was not below 40% and the DC50 is not above 100 nM. Also, in the test on MCF-7 cells, the “MCF7 Viability Assay Max Response” value was “++ (++ = a single % value ≧ 40%)” and the IC50 was not above 100 nM.
For the molecule `O=C(O)/C=C/c1ccc(/C(=C(\c2ccc(OC(F)(F)F)cc2Cl)C2CCC2)c2ccc3scnc3c2)cc1` [Example 241, (E)-3-(4-((E)-1-(Benzo[d]thiazol-5-yl)-2-(2-chloro-4-(trifluoromethoxy)phenyl)-2-cyclobutylvinyl)phenyl)acrylic acid], on ER-α in MCF-7 cells, the Emax is not below 40% and the DC50 is not above 100 nM. Besides, in the test with MCF-7 cells, the “MCF7 Viability Assay Max Response” value is on record as “++ (++ = a single % value ≧ 40%)” and the IC50 is not above 100 nM.
`N#Cc1cc(C(F)(F)F)ccc1/C(=C(\c1ccc(/C=C/C(=O)O)cc1)c1ccc2scnc2c1)C1CCC1` [Example 242, (E)-3-(4-((E)-1-(Benzo[d]thiazol-5-yl)-2-(2-cyano-4-(trifluoromethyl)phenyl)-2-cyclobutylvinyl)phenyl)acrylic acid]: on ER-α in MCF-7 cells, the Emax was not below 40% and the DC50 was not above 100 nM. In the test on MCF-7 cells, the “MCF7 Viability Assay Max Response” value is given as “++ (++ = a single % value ≧ 40%)” and the IC50 is not above 100 nM.
Consider `N#Cc1cc(C(F)(F)F)ccc1/C(=C(\c1ccc(/C=C/C(=O)O)cc1)c1ccc2[nH]nc(F)c2c1)C1CCC1` [Example 243, (E)-3-(4-((E)-2-(2-Cyano-4-(trifluoromethyl)phenyl)-2-cyclobutyl-1-(3-fluoro-1H-indazol-5-yl)vinyl)phenyl)acrylic acid], for which, at ER-α in MCF-7 cells, the Emax is not below 40% and the DC50 was not above 100 nM. In addition, in the test with MCF-7 cells, the “MCF7 Viability Assay Max Response” value is recorded as “++ (++ = a single % value ≧ 40%)” and the IC50 was not above 100 nM.

In general, IC50 refers to the concentration that inhibits the measured activity by half. Read a high IC50 as lower potency.
